Like-named read-outs stand apart in the source and are kept apart here.
What was measured:
[1] = Hydrolysis in human serum; format: in vitro ADME; conditions: male, 37 °C, compound 250 μM, read-out: Human serum stability t1/2
Protocol: A solution of each compound of the invention (10 mM) in acetonitrile was added to human serum (from human male AB plasma, Sigma) preheated at 37° C., the final concentration of the compound was 250 μM. Resulting solution were incubated at 37±0.5° C. and at appropriate time intervals 500 μL of reaction mixture was withdrawn and added to 750 μL of acetonitrile containing 0.1% trifluoroacetic acid in order to deproteinize the serum. Sample was sonicated, vortexed and then centrifuged for 10′ at 2150 g. The clear supernatant was filtered by 0.45 μm PTFE filters (Alltech) and analysed by RP-HPLC.
(§1) Analyses were carried out with a HP 1100 chromatograph system (Agilent Technologies, Palo Alto, Calif., USA) equipped with a quaternary pump (model G1311A), a membrane degasser (G1379A), a diode-array detector (DAD) (model G1315B) integrated in the HP1100 system. Data analysis was done using a HP ChemStation system (Agilent Technologies). The analytical column was a Nucleosil 100-5018 Nautilus (250×4.6 mm, 5 μm particle size) (Macherey-Nagel). The mobile phase consisting of acetonitrile/water (55/45) with 0.1% trifluoroacetic acid and the flow-rate was 1.2 mL/min. The injection volume was 20 μL (Rheodyne, Cotati, Calif.). The column effluent was monitored at 240 nm (for salicylic acid) and at 226 nm (for all the other products) and referenced against a 360 nm wavelength. Quantitation was done by comparison of peak areas with standards chromatographed under the same conditions. The hydrolysis followed first-order kinetics. The observed pseudo-first-order rate constants (kobs) were calculated from the slopes of linear plots of the natural logarithms of percent remaining products against time and the corresponding half-lives (t1/2) were obtained from […]

[2] = Hydrolysis in acidic medium (pH 1) and in phosphate buffer (pH 7.4); format: physicochemical; conditions: for Stability in buffered solutions pH 1 % unchanged after 6 h: HCl 0.1M, pH 1, 37 °C; for Stability in buffered solutions pH 1 % unchanged after 6 h / Stability in buffered solutions pH 7.4 % unchanged after 6 h: 250 μM; for Stability in buffered solutions pH 7.4 % unchanged after 6 h: phosphate buffer 50 mM pH 7.4, 37 °C
Protocol: A solution of each compound of the invention (10 mM) in acetonitrile was added to a HCl 0.1M or to a phosphate buffer 50 mM pH=7.4, containing, when necessary, 10-20% of acetonitrile as cosolvent. The final concentration of the compound was 250 μM. Resulting solution was kept at 37±0.5° C. and at appropriate time intervals a 20 μL aliquote of reaction solution was analysed by RP-HPLC.
as §1

rat aorta strips = test: Vasodilating activity on precontracted rat aorta strips; format: cell-based; conditions: endothelium-denuded rat aortic strips contracted with 1 μM L-phenylephrine; for EC50: read-out: vasodilating activity EC50 ± SE
Protocol: Thoracic aortas were isolated from male Wistar rats weighing 180-200 g. The endothelium was removed and the vessels were helically cut: three strips were obtained from each aorta. The tissues were mounted under 1.0 g tension in organ baths containing 30 ml of Krebs-bicarbonate buffer with the following composition (mM): NaCl 111.2, KCl 5.0, CaCl2 2.5, MgSO4 1.2, KH2PO4 1.0, NaHCO3 12.0, glucose 11.1, maintained at 37° C. and gassed with 95% O2-5% CO2 (pH=7.4). The aortic strips were allowed to equilibrate for 120 min and then contracted with 1 μM L-phenylephrine. When the response to the agonist reached a plateau, cumulative concentrations of the vasodilating agent were added.
All the compounds of the invention were capable to relax precontracted rat aorta strips in a concentration dependent manner.
When the vasodilator experiments were repeated in the presence of 1 μM ODQ (1H-[1,2,4]oxadiazolo[4,3-a]quinoxalin-1-one), a well known inhibitor of the soluble guanylate cyclase (sGC), a decrease in the vasodilator potencies was observed.

human platelets = test: Inhibition of platelet aggregation in vitro; format: cell-based; conditions: human PRP, collagen 1.0 μg/mL
Protocol: Platelet rich plasma (PRP) is prepared by centrifugation of citrated blood at 200 g for 20 minutes. […] Collagen (1.0 μg/mL) is used as platelet activator in PRP. The inhibitory activity of the compounds is tested by addition of drug to PRP 10 or 30 min before addition of the stimulus.
The antiaggregatory activity of the compounds of the invention is evaluated as % inhibition of platelet aggregation compared to control samples.

[3] = drug added 10 min before stimulus, read-out: Platelet Aggregation IC50 (collagen 95%) 10 min
[4] = drug added 30 min before stimulus, read-out: Platelet Aggregation IC50 (collagen 95%) 30 min

## CC(=O)Oc1ccccc1C(=O)OCOC(=O)c1ccc(CC(CO[N+](=O)[O-])O[N+](=O)[O-])cc1 (centres unmarked) [(1), ({4-[2,3-Bis(nitrooxy)propyl]benzoyl}oxy)methyl 2-(acetyloxy)benzoate]
[1]
  half-life at 250 μM: 3.4 min
[2]
  Stability in buffered solutions pH 1 % unchanged after 6 h: >98%
  Stability in buffered solutions pH 7.4 % unchanged after 6 h: 100%
Rat aorta strips
  EC50: 52 ± 7 nM

## CC(=O)Oc1ccccc1C(=O)OCOC(=O)c1ccc(OCCCO[N+](=O)[O-])cc1 [(2), ({4-[3-(Nitrooxy)propoxy]benzoyl}oxy)methyl 2-(acetyloxy)benzoate]
[1]
  half-life at 250 μM: 3 min
[2]
  Stability in buffered solutions pH 1 % unchanged after 6 h: >98%
  Stability in buffered solutions pH 7.4 % unchanged after 6 h: >98%
Rat aorta strips
  EC50: 17 ± 3 nM

## CC(=O)Oc1ccccc1C(=O)OCOC(=O)c1ccc(OCC(CO[N+](=O)[O-])O[N+](=O)[O-])cc1 (centres unmarked) [(3), ({4-[2,3-Bis(nitrooxy)propoxy]benzoyl}oxy)methyl 2-(acetyloxy)benzoate]
[1]
  half-life at 250 μM: 5.4 min
[2]
  Stability in buffered solutions pH 1 % unchanged after 6 h: >98%
  Stability in buffered solutions pH 7.4 % unchanged after 6 h: >98%
Rat aorta strips
  EC50: 41 ± 7 nM

## CC(=O)Oc1ccccc1C(=O)OCOC(=O)CCCCO[N+](=O)[O-] [(4)]
Rat aorta strips
  EC50: 1900 ± 500 nM

## CC(=O)Oc1ccccc1C(=O)OCOC(=O)CCCCCO[N+](=O)[O-] [(5), {[6-(Nitrooxy)hexanoyl]oxy}methyl 2-(acetyloxy)benzoate]
Rat aorta strips
  EC50: 1200 ± 200 nM

## CC(=O)Oc1ccccc1C(=O)OCOC(=O)CCCC(CO[N+](=O)[O-])O[N+](=O)[O-] (centres unmarked) [(6), {[5,6-Bis(nitrooxy)hexanoyl]oxy}methyl 2-(acetyloxy)benzoate]
[1]
  half-life at 250 μM: 2.7 min
[2]
  Stability in buffered solutions pH 1 % unchanged after 6 h: >98%
  Stability in buffered solutions pH 7.4 % unchanged after 6 h: 100%
Rat aorta strips
  EC50: 390 ± 60 nM

## CC(=O)Oc1ccccc1C(=O)OCOC(=O)CCCCCCO[N+](=O)[O-] [(7), {[7-(Nitrooxy)heptanoyl]oxy}methyl 2-(acetyloxy)benzoate]
Rat aorta strips
  EC50: 1600 ± 200 nM

## CC(=O)Oc1ccccc1C(=O)OCOC(=O)CCCCC(CO[N+](=O)[O-])O[N+](=O)[O-] (centres unmarked) [(8), {[6,7-Bis(nitrooxy)heptanoyl]oxy}methyl 2-(acetyloxy)benzoate]
[1]
  half-life at 250 μM: 2.5 min
[2]
  Stability in buffered solutions pH 1 % unchanged after 6 h: >98%
  Stability in buffered solutions pH 7.4 % unchanged after 6 h: 100%
Rat aorta strips
  EC50: 520 ± 90 nM

## CC(=O)Oc1ccccc1C(=O)OCOC(=O)Cc1ccc(OCCCO[N+](=O)[O-])cc1 [(9)]
[1]
  half-life at 250 μM: 1.5 min
[2]
  Stability in buffered solutions pH 1 % unchanged after 6 h: >98%
  Stability in buffered solutions pH 7.4 % unchanged after 6 h: >98%
Rat aorta strips
  EC50: 300 ± 60 nM

## CC(=O)Oc1ccccc1C(=O)OCOC(=O)Cc1ccc(OCC(CO[N+](=O)[O-])O[N+](=O)[O-])cc1 (centres unmarked) [(10), [(2-{4-[2,3-Bis(nitrooxy)propoxy]phenyl}acetyl)oxy]methyl 2-(acetyloxy)benzoate]
Rat aorta strips
  EC50: 270 ± 50 nM

## CC(=O)Oc1ccccc1C(=O)OCOC(=O)c1ccc(SCCCO[N+](=O)[O-])cc1 [(11), [(4-{[3-(Nitrooxy)propyl]thio}benzoyl)oxy]methyl 2-(acetyloxy)benzoate]
[1]
  half-life at 250 μM: 2 min
[2]
  Stability in buffered solutions pH 1 % unchanged after 6 h: >98%
  Stability in buffered solutions pH 7.4 % unchanged after 6 h: >98%

## CC(=O)Oc1ccccc1C(=O)OCOC(=O)c1ccc(CCCO[N+](=O)[O-])cc1 [(12), ({4-[3-(Nitrooxy)propyl]benzoyl}oxy)methyl 2-(acetyloxy)benzoate]
Rat aorta strips
  EC50: 75 ± 14 nM
Human platelets; [3]
  IC50: 41000 nM
Human platelets; [4]
  IC50: 14000 nM

## CC(=O)Oc1ccccc1C(=O)OCOC(=O)c1ccccc1OC(=O)CCC(CO[N+](=O)[O-])O[N+](=O)[O-] (centres unmarked) [(13), [(2-{[4,5-Bis(nitrooxy)pentanoyl]oxy}benzoyl)oxy]methyl 2-(acetyloxy)benzoate]
Rat aorta strips
  EC50: 82 ± 14 nM

## CC(=O)Oc1ccccc1C(=O)OCOC(=O)c1ccc(OCCCO[N+](=O)[O-])cc1O [(14), {[2-(Acetyloxy)benzoyl]oxy}methyl 2-hydroxy-4-[3-(nitrooxy)propoxy]benzoate]
Rat aorta strips
  EC50: 8 ± 1.1 nM

## CC(=O)Oc1ccccc1C(=O)OCOC(=O)c1ccc(S(=O)(=O)CCCO[N+](=O)[O-])cc1 [(15), [(4-{[3-(Nitrooxy)propyl]sulfonyl}benzoyl)oxy]methyl 2-(acetyloxy)benzoate]
[1]
  half-life at 250 μM: 1 min
[2]
  Stability in buffered solutions pH 1 % unchanged after 6 h: >98%
  Stability in buffered solutions pH 7.4 % unchanged after 6 h: 70%
[2]; phosphate buffer 50 mM pH 7.4, phosphate buffer pH 7.4, 37 °C, read-out: t1/2 in buffered solution pH 7.4
  half-life at 250 μM: ~720 min
Human platelets; [3]
  IC50: 34000 nM
Human platelets; [4]
  IC50: 17000 nM

## CC(=O)Oc1ccccc1C(=O)OCOC(=O)c1ccc(SCC(CO[N+](=O)[O-])O[N+](=O)[O-])cc1 (centres unmarked) [(16), [(4-{[2,3-Bis(nitrooxy)propyl]thio}benzoyl)oxy]methyl 2-(acetyloxy)benzoate]
[1]
  half-life at 250 μM: 4.8 min
[2]
  Stability in buffered solutions pH 1 % unchanged after 6 h: >98%
  Stability in buffered solutions pH 7.4 % unchanged after 6 h: >98%

## CC(=O)Oc1ccccc1C(=O)OCOC(=O)c1ccc(SCc2no[n+]([O-])c2C)cc1 [(20), [(4-{[(3-Methyl-furoxan-4-yl)methyl]thio}benzoyl)oxy]methyl 2-(acetyloxy)benzoate]
other
  melting point: 96 to 97 °C

## CC(=O)Oc1ccccc1C(=O)OCOC(=O)c1ccc(SCc2no[n+]([O-])c2C(N)=O)cc1 [(21), [(4-{[(3-Aminocarbonyl-furoxan-4-yl)methyl]thio}benzoyl)oxy]methyl 2-(acetyloxy)benzoate]
other
  melting point: 149 to 151 °C

## CC(=O)Oc1ccccc1C(=O)OCOC(=O)c1ccc(SCc2no[n+]([O-])c2C#N)cc1 [(22), [(4-{[(3-Cyano-furoxan-4-yl)methyl]thio}benzoyl)oxy]methyl 2-(acetyloxy)benzoate]
other
  melting point: 98.5 to 101.5 °C

## CC(=O)Oc1ccccc1C(=O)OC(C)OC(=O)c1ccc(SCCCO[N+](=O)[O-])cc1 (centres unmarked) [(24), 1-{[4-([3-(nitrooxy)propyl]thio}benzoyl)oxy]ethyl 2-(acetyloxy)Benzoate]
[1]
  half-life at 250 μM: 4.2 min
[2]
  Stability in buffered solutions pH 1 % unchanged after 6 h: >98%
  Stability in buffered solutions pH 7.4 % unchanged after 6 h: >98%

## CC(=O)Oc1ccccc1C(=O)O [Aspirin, reference compound]
[1]
  half-life at 250 μM: 63 min
Rat aorta strips
  vasodilating activity EC50 ± SE: no effect

— patent publication US20100210694A1 (NICOX S.A., priority 2007, published 2010)
